Values quoted from earlier work, collected in patent publication EP0529484A1, “Antitussive and expectorant composition” (ND NEW DRUG DEVELOPMENT INSTITUTE INC., priority 1991, dated 1993).

C[N+]1(CCF)[C@@H]2CC[C@H]1C[C@@H](OC(=O)C(O)(c1ccccc1)c1ccccc1)C2 (stereo partly drawn) [flutropium bromide, 8(r)-8-(2-fluoroethyl)-3α-hydroxy-1αH,5αH-tropanium bromide, benzilate hydrate]
LD₅₀ through oral administration (rat): 2,900 mg/kg | LD₅₀ through oral administration (mouse): 930 mg/kg
